For data set [1], the system named is collagen production induced by TGF-β (NHDF cells). In words: Inhibitory effect on collagen production induced by TGF-β, [3H] proline uptake (NHDF cells). It counts as cell-based, human. The conditions noted are these: Homo sapiens, NHDF, TGF-β1 3 ng/ml. In a few lines:
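NHDF or TIG-3 fibroblasts, serum-starved one day in 0.1% BSA DMEM, received test compound (1, 3, 10 μM), then TGF-β1 (3 ng/ml) plus [3H] proline for one more day. TCA-precipitated protein radioactivity was counted and corrected for XTT cell number. Inhibition is relative to the TGF-β1-induced uptake difference.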

In data set [2] the test system is collagen production induced by TGF-β (TIG-3 cells). Kind of data set: Inhibitory effect on collagen production induced by TGF-β, [3H] proline uptake (TIG-3 cells). It counts as cell-based. As to conditions: Homo sapiens, TGF-β1 3 ng/ml. As for the experimental part: As an index of collagen production, the uptake of [^3H] proline was measured.
Using a 96-well microplate, normal human skin derived fibroblast (NHDF, 10^4/well) or human embryonic lung fibroblast (TIG-3, 10^4/well) were cultured in a 10% fetal calf serum (FCS)-containing Dulbecco's modified Eagle medium (DMEM) for one day. After removing the culture supernatant, the cells were washed once with a 0.1% bovine serum albumin (BSA)-containing DMEM medium and then cultured in the 0.1% bovine serum albumin (BSA)-containing DMEM medium for one day. After adding each of the test compounds in each concentration (1, 3, 10 μM), the cells were cultured and, after adding TGF-β1 (3 ng/ml) and [^3H] proline (18.5 kBq/well), the cells were further cultured for additional one day.
After removing the culture supernatant, the cells were washed twice with a phosphate buffer solution (PBS) and dissolved with 0.3M NaOH and 1% sodium dodecylsulfate (SDS), and then each protein fraction was precipitated with trichloroacetic acid (TCA) After the precipitate was filtered through a glass filter (GF/B) and washed, the quantity of [^3H] proline on the glass filter was measured by a liquid scintillation counter. The number of cells was measured by a cell growth measuring kit (XTT, Roche) and the uptake of [^3H] proline was corrected by the number of cells. Inhibitory ratio was calculated as compared with the case where a difference between the uptake of [^3H] proline with or without TGF-β1.

Data set [3] can be described thus: Measurement of concentration of compound in rat plasma. It counts as in vivo. As to conditions: oral 10 mg/kg; for concentration at 0.25 h: after 0.25 hours; for concentration at 1 h: after 1 hour; for concentration at 4 h: after 4 hours. As for the experimental part:
Each of the test compounds was dissolved or suspended in methyl cellulose and the resulting solution or suspension was orally administered to rats at a dosage of 10 mg/kg and blood was collected after 0.25 hours, 1 hour and 4 hours. The concentration in plasma in each of the compounds was measured by HPLC.

In the next data set the test system is mice. In words: Acute toxicity. It counts as in vivo. The conditions noted are these: oral 1000 mg/kg, observed for a week after administration. As for the experimental part:
Each of the compounds in Examples 1, 9, 31, 120, and 121 was administered.

Structures can show the parent of a compound that is named as a salt.

The results in this text go back to patent publication US20050014942A1, “Amide derivatives and drugs” (priority 2001, published 2005).

In the case of `Cc1ccc2c(c1)c(C(=O)N1CCN(c3ccccn3)CC1)c(-c1ccccc1)n2C` [Compound A, 1-(1,5-dimethyl-2-phenylindol-3-ylcarbonyl)-4-(2-pyridyl)piperazine hydrochloride, reference compound], in data set [1], the inhibition at 1 µM came to 8%, the inhibition at 3 µM is 9% and the inhibition at 10 µM was determined as 30%. In addition, in data set [2], the inhibition at 3 µM is 28% and the inhibition at 10 µM stood at 63%. In data set [3], this compound had a concentration at 0.25 h of 0 to 69 ng/mL, a concentration at 1 h of 55 to 120 ng/mL and a concentration at 4 h of 5 to 18 ng/mL.

In the case of `Cc1ccc2c(c1)c(C(=O)N1CCN(c3ccc(-c4nnn(CCO)n4)cn3)CC1)c(-c1ccccc1)n2C.Cl` [Example 9, 1,5-dimethyl-2-phenyl-3-[(4-{5-[2-(2-hydroxyethyl)-2H-tetrazol-5-yl]pyridin-2-yl}piperazin-1-yl)carbonyl]-1H-indole hydrochloride], in data set [2], the inhibition at 3 µM came out at 42% and the inhibition at 10 µM was found to be 71%. In data set [3], this compound returned a concentration at 0.25 h of 1300 to 3900 ng/mL, a concentration at 1 h of 720 to 2200 ng/mL and a concentration at 4 h of 350 to 530 ng/mL. In the data set with mice, the “Acute toxicity: deaths” value is “no deaths were observed”.

Take `Cc1ccc2c(c1)c(C(=O)N1CCN(c3ccc(C(=O)NCCO)cn3)CC1)c(-c1ccccc1)n2C` [Example 1, 6-{4-[(1,5-dimethyl-2-phenyl-1H-indol-3-yl)carbonyl]piperazin-1-yl}-N-(2-hydroxyethyl)nicotinamide]: in data set [2], the inhibition at 3 µM came to 21% and the inhibition at 10 µM worked out at 56%. In data set [3], this compound yielded a concentration at 0.25 h of 2300 to 29000 ng/mL, a concentration at 1 h of 1300 to 7300 ng/mL and a concentration at 4 h of 750 to 940 ng/mL. The “Acute toxicity: deaths” value in the data set on mice is recorded as “no deaths were observed”.

As for `Cc1ccc2c(c1)c(C(=O)N1CCN(c3cnc(C(=O)NCCCn4ccnc4)cn3)CC1)c(-c1ccccc1)n2C` [Example 31, 5-{4-[(1,5-dimethyl-2-phenyl-1H-indol-3-yl)carbonyl]piperazin-1-yl}-N-[3-(1H-imidazol-1-yl)propyl]pyrazine-2-carboxamide], in data set [1], the inhibition at 10 µM is 74%. Further, in data set [2], the inhibition at 3 µM worked out at 36% and the inhibition at 10 µM was determined as 90%. Further, in data set [3], the concentration at 0.25 h was in the range of 320 to 370 ng/mL, the concentration at 1 h lay in the range of 320 to 640 ng/mL and the concentration at 4 h lay in the range of 420 to 650 ng/mL. For the same compound, the “Acute toxicity: deaths” value with mice is given as “no deaths were observed”.

With `Cc1ccc2c(c1)c(C(=O)N1CCN(c3cnc(C(=O)NCCc4ccccn4)cn3)CC1)c(-c1ccccc1)n2C` [Example 76, 5-{4-[(1,5-dimethyl-2-phenyl-1H-indol-3-yl)carbonyl]piperazin-1-yl}-N-[2-(2-pyridyl)ethyl]pyrazine-2-carboxamide], in data set [2], the inhibition at 3 µM came to 78% and the inhibition at 10 µM was found to be 101%.

With `Cc1ccc2c(c1)c(C(=O)N1CCN(c3cnc(C(=O)NCCc4scnc4C)cn3)CC1)c(-c1ccccc1)n2C` [Example 80, 5-{4-[(1,5-dimethyl-2-phenyl-1H-indol-3-yl)carbonyl]piperazin-1-yl}-N-[2-(4-methyl-1,3-thiazol-5-yl)ethyl]pyrazine-2-carboxamide], in data set [2], the inhibition at 3 µM stood at 105% and the inhibition at 10 µM was 149%.

With `Cc1ccc2c(c1)c(C(=O)N1CCN(c3cnc(C(=O)NCc4c(C)noc4C)cn3)CC1)c(-c1ccccc1)n2C` [Example 32, 5-{4-[(1,5-dimethyl-2-phenyl-1H-indol-3-yl)carbonyl]piperazin-1-yl}-N-[(3,5-dimethylisoxazol-4-yl)methyl]pyrazine-2-carboxamide], in data set [2], the inhibition at 3 µM stood at 62% and the inhibition at 10 µM was 117%.

In the case of `Cc1ncsc1CCNC(=O)c1cnc(N2CCN(C(=O)c3c(-c4ccccc4)n(C)c4cccnc34)CC2)cn1` [Example 7, 5-{4-[(1-methyl-2-phenyl-1H-pyrrolo[3,2-b]pyridin-3-yl)carbonyl]piperazin-1-yl}-N-[2-(4-methyl-1,3-thiazol-5-yl)ethyl]pyrazine-2-carboxamide], the melting point came out at 224.6 °C.

In the case of `Cc1ccc2c(c1)c(C(=O)N1CCN(c3ccc(C(=O)N(CCO)Cc4ccccc4)cn3)CC1)c(-c1ccccc1)n2C` [Example 60, 6-{4-[(1,5-dimethyl-2-phenyl-1H-indol-3-yl)carbonyl]piperazin-1-yl}-N-(2-hydroxyethyl)-N-benzylnicotinamide hydrochloride], in data set [2], the inhibition at 3 µM is 70% and the inhibition at 10 µM worked out at 133%.

In the case of `CC(=O)Nc1cnc(N2CCN(C(=O)c3c(-c4ccccc4)n(C)c4ccc(C)cc34)CC2)cn1` [Example 121, N-[5-{4-[(1,5-dimethyl-2-phenyl-1H-indol-3-yl)carbonyl]piperazin-1-yl}pyrazin-2-yl]acetamide], in data set [1], the inhibition at 3 µM turned out to be 39% and the inhibition at 10 µM worked out at 54%. In data set [3], this compound had a concentration at 0.25 h of 3900 to 5800 ng/mL, a concentration at 1 h of 2100 to 5800 ng/mL and a concentration at 4 h of 310 to 580 ng/mL. Further, the “Acute toxicity: deaths” value in the data set with mice is listed as “no deaths were observed”.

`COc1ccc(CNC(=O)/C=C/c2c(-c3ccccc3)n(C)c3ccccc23)cc1` [Example 2, (2E)-N-(4-methoxybenzyl)-3-(1-methyl-2-phenyl-1H-indol-3-yl)acrylamide]: in data set [1], the inhibition at 1 µM turned out to be 23%, the inhibition at 3 µM is 61% and the inhibition at 10 µM came to 79%. Further, in data set [2], the inhibition at 3 µM is 74% and the inhibition at 10 µM was 117%.

As for `Cc1ccc2c(c1)c(C(=O)N1CCN(c3cnc(C(=O)NCc4ccco4)cn3)CC1)c(-c1ccccc1)n2C` [Example 15, 5-{4-[(1,5-dimethyl-2-phenyl-1H-indol-3-yl)carbonyl]piperazin-1-yl}-N-(2-furylmethyl)pyrazine-2-carboxamide], in data set [2], the inhibition at 3 µM came out at 82% and the inhibition at 10 µM is 140%.

Take `COc1cc2c(cc1OC)C(C)N(C(=O)/C=C/c1c(-c3ccccc3)n(C)c3ncccc13)CC2` (centres unmarked) [Example 3, 6,7-dimethoxy-1-methyl-2-[(2E)-3-(1-methyl-2-phenyl-1H-pyrrolo[2,3-b]pyridin-3-yl)prop-2-enoyl]-1,2,3,4-tetrahydroisoquinoline hydrochloride]: in data set [1], the inhibition at 1 µM was 65%, the inhibition at 3 µM was determined as 105% and the inhibition at 10 µM turned out to be 143%. In data set [3], this compound gave a concentration at 0.25 h of 120 to 660 ng/mL, a concentration at 1 h of 370 to 640 ng/mL and a concentration at 4 h of 260 to 310 ng/mL.

For `Cc1ccc2c(c1)c(C(=O)N1CCN(c3ccc(C(=O)N(C)C)cn3)CC1)c(-c1ccccc1)n2C.Cl` [Example 120, 6-{4-[(1,5-dimethyl-2-phenyl-1H-indol-3-yl)carbonyl]piperazin-1-yl}-N,N-dimethylnicotinamide hydrochloride], in data set [3], the concentration at 0.25 h lay in the range of 6400 to 10000 ng/mL, the concentration at 1 h was in the range of 3200 to 5700 ng/mL and the concentration at 4 h lay in the range of 2500 to 3100 ng/mL. In the data set with mice, the “Acute toxicity: deaths” value is recorded as “no deaths were observed”.

Usually inhibition stands for the relative decrease from the control value, in per cent. As usually defined, the melting point is the temperature, or range, at which the solid turns liquid.
